Measured values reported in ChEMBL document CHEMBL1125412, “NG-allyl- and NG-cyclopropyl-L-arginine: two novel inhibitors of macrophage nitric oxide synthase” (J Med Chem, 1992).

Columns and labels:
[1] = Compound was tested for the inhibition of inducible murine macrophage nitric oxide(NO) synthase
[2] = Compound was tested for the inhibition of inducible murine macrophage expressed as inactivation constant
[3] = Compound was tested for the inhibition of inducible murine macrophage nitric oxide(NO) synthase, activity expressed as inhibitory constant

## N=C(NCCC[C@H](N)C(=O)O)NC1CC1
[1]
  Ki: 7.7 µM

## C=CC/N=C(/N)NCCC[C@H](N)C(=O)O [5-N-ALLYL-ARGININE]
[2]
  K inact: 0.026 min⁻¹
[1]
  Ki: 2.1 µM
[3]
  Ki: 3.4 µM

## CNC(=N)NCCC[C@H](N)C(=O)O [TILARGININE]
[2]
  K inact: 0.05 min⁻¹
[3]
  Ki: 4.2 µM
